Data reported in ChEMBL document CHEMBL4270593, “Novel spiroindoline HDAC inhibitors: Synthesis, molecular modelling and biological studies” (Eur J Med Chem, 2018).
pIC50: −log10 of the molar value. Calls of active or inactive are those of the source. The calls are words filed in the database; no cut-off is given here.

Columns and labels:
[1] = target: T1, Protein deacetylase HDAC6 (Homo sapiens, UniProt Q9UBN7); assay: Inhibition of human recombinant N-terminal GST-tagged full length HDAC6 expressed in insect SF9 cells using fluorogenic ZMAL as substrate after 90 mins by fluorescence-based assay
T1 sequence (Q9UBN7 whole entry): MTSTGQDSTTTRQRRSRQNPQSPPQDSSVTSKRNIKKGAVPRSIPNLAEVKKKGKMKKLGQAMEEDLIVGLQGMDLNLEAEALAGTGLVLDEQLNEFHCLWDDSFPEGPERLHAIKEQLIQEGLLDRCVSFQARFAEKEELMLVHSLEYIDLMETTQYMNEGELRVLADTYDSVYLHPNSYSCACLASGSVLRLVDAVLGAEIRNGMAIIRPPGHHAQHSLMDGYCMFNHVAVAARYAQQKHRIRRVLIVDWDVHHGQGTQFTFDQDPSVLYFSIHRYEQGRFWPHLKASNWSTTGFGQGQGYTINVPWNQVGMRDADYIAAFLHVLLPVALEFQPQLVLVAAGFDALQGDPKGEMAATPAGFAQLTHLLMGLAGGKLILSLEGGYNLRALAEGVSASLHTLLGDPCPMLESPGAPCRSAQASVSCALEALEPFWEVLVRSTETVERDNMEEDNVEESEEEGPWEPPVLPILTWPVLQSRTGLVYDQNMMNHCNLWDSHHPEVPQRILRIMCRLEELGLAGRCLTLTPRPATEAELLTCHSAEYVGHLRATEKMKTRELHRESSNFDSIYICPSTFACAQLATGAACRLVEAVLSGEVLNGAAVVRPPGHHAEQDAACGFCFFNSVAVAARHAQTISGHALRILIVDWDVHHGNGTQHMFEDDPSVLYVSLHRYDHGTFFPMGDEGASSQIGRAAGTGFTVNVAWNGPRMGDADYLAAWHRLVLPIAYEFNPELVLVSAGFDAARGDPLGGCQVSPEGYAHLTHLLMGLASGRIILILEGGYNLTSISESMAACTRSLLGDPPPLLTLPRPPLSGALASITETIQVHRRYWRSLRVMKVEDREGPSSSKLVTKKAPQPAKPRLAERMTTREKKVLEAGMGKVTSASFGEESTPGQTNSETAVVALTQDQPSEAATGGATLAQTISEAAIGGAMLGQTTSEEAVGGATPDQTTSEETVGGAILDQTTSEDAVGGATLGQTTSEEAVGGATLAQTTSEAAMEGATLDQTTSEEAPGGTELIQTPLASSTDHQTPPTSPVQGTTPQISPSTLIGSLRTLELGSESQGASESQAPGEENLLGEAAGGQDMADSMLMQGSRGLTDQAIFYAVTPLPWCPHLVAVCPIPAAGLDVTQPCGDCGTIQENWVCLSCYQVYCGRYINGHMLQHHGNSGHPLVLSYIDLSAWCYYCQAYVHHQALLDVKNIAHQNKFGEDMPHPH

Histone deacetylase 1 = Histone deacetylase 1 (Homo sapiens, UniProt Q13547); assay: Inhibition of human recombinant C-terminal His/FLAG-tagged full length HDAC1 expressed in insect SF9 cells using fluorogenic ZMAL as substrate after 90 mins by fluorescence-based assay
Homo sapiens [2] = species on record: Homo sapiens; assay: Selectivity ratio of IC50 for human recombinant C-terminal His/FLAG-tagged full length HDAC1 to IC50 for N-terminal GST-tagged full length HDAC6
Histone deacetylase 8 = target: T2, Histone deacetylase 8 (Homo sapiens, UniProt Q9BY41); assay: Inhibition of human recombinant HDAC8 using fluor de Lys(R) as substrate after 90 mins by fluorescence-based assay
T2 sequence (Q9BY41 whole entry): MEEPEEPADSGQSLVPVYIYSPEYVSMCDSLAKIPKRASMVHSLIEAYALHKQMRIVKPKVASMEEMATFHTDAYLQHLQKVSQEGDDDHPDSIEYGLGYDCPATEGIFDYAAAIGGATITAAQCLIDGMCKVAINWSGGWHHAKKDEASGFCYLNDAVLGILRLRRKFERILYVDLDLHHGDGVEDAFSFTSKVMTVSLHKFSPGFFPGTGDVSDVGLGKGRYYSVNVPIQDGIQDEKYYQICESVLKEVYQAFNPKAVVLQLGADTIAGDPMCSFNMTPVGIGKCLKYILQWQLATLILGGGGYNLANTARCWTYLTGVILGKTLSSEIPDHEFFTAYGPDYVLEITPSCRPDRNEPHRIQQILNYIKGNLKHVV

[3] = Inhibition of class 1 HDAC in human U87 cells assessed as levels of histone H3 acetylation at lysine 9/14 at 1 uM after 30 hrs by Western blot analysis relative to control; conditions: u87, 30 h
[4] = Cytotoxicity against mouse NIH/3T3 cells assessed as reduction in cell viability by neutral red uptake test; assay type: cell-based, NIH3T3; conditions: read-out: TC50 (the source's name)
[5] = Inhibition of class 1 HDAC in human SH-SY5Y cells assessed as levels of histone H3 acetylation at lysine 9/14 at 5 uM after 30 hrs by Western blot analysis relative to control
[6] = Inhibition of class 1 HDAC in human SH-SY5Y cells assessed as levels of histone H3 acetylation at lysine 9/14 at 1 uM after 30 hrs by Western blot analysis relative to control
[7] = target: T3, Protein deacetylase HDAC6 (Homo sapiens) (UniProt Q9UBN7); assay: Inhibition of HDAC6 in human SH-SY5Y cells assessed as reduction in cell migration at 5 uM measured every 2 mins for 4 days by RTCA based assay
T3 sequence (whole entry): T1 sequence (Q9UBN7 whole entry)

[8] = Inhibition of class 1 HDAC in human NB4 cells assessed as levels of histone H3 acetylation at lysine 9/14 at 1 uM after 30 hrs by Western blot analysis relative to control
[9] = Inhibition of class 1 HDAC in human U87 cells assessed as levels of histone H3 acetylation at lysine 9/14 at 5 uM after 30 hrs by Western blot analysis relative to control; conditions: u87, 30 h
NB-4 [10] = assay: Induction of cell death in human NB4 cells assessed as DNA fragmentation at 5 uM after 30 hrs by propidium iodide-based FACS analysis; assay type: functional
[11] = target: T3, Protein deacetylase HDAC6 (Homo sapiens); assay: Inhibition of HDAC6 in human SH-SY5Y cells assessed as increase in levels of alpha-tubulin acetylation after 30 hrs by Western blot analysis; assay type: cell-based
[12] = Inhibition of class 1 HDAC in human NB4 cells assessed as levels of histone H3 acetylation at lysine 9/14 at 5 uM after 30 hrs by Western blot analysis relative to control
Homo sapiens [13] = species on record: Homo sapiens; assay: Selectivity ratio of IC50 for human recombinant C-terminal His/FLAG-tagged full length HDAC2 to IC50 for human recombinant N-terminal GST-tagged full length HDAC6
Homo sapiens [14] = species on record: Homo sapiens; assay: Selectivity ratio of IC50 for human recombinant C-terminal His-tagged full length HDAC3/NcoR2 to IC50 for human recombinant N-terminal GST-tagged full length HDAC6
[15] = target: T3, Protein deacetylase HDAC6 (Homo sapiens); assay: Inhibition of HDAC6 in human U87 cells assessed as increase in levels of alpha-tubulin acetylation after 30 hrs by Western blot analysis; assay type: cell-based
NB-4 [16] = assay: Induction of cell cycle arrest in human NB4 cells assessed as accumulation at G1 phase after 30 hrs by propidium iodide-based FACS analysis; assay type: functional
NB-4 [17] = assay: Induction of cell cycle arrest in human NB4 cells assessed as accumulation at G1 phase at 5 uM after 30 hrs by propidium iodide-based FACS analysis; assay type: functional

Sequence of Histone deacetylase 1 (Q13547 whole entry): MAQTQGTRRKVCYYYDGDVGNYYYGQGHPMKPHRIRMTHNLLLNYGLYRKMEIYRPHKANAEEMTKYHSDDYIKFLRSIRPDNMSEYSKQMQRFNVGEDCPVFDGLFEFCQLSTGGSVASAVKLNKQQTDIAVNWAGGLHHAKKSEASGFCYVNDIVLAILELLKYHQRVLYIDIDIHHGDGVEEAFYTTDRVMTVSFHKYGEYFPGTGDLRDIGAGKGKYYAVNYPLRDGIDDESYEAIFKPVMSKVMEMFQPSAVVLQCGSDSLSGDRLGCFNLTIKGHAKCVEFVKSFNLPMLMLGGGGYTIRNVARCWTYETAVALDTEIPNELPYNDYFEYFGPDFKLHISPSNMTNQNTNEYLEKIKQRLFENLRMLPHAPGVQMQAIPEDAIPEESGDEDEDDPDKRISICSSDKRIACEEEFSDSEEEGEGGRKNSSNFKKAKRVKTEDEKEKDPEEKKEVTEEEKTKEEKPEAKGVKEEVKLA

| SMILES | pIC50 [1] | pIC50 (Histone deacetylase 1) | Ratio IC50 (Homo sapiens [2]) | FC [3] | FC [8] | FC [9] | FC [12] | other results |
| --- | --- | --- | --- | --- | --- | --- | --- | --- |
| CC(C)(C)OC(=O)N1CCC2(CC1)CN(Cc1ccc(C(=O)NO)cc1)c1ccccc12 | 7.38 | 5.40 | 95 | 2.74 | 1.12 | 2.12 | 0.96 | CC50 [4]: 23000 nM; FC [5]: 1.11; FC [6]: 1.1; pIC50 (Histone deacetylase 8): 5.80; inhibition [7]: Active; Activity (NB-4 [10]): Active; inhibition [11]: Dose-dependent effect |
| O=C(CCCCCCNC(=O)c1cnc(N(c2ccccc2)c2ccccc2Cl)nc1)NO |  |  | 10 |  |  |  |  | Ratio IC50 (Homo sapiens [13]): 10; Ratio IC50 (Homo sapiens [14]): 10 |
| CN1CCC2(CC1)CN(Cc1ccc(C(=O)NO)cc1)c1ccccc12 | 6.69 | 4.93 | 57 | 1.83 | 1.02 | 1.6 | 2.44 | inhibition [15]: Dose-dependent effect |
| O=C(CCCCCCC(=O)Nc1ccccc1)NO |  |  |  |  |  |  |  | Activity (NB-4 [16]): Active |
| CN1CCC2(CC1)CN(Cc1ccc(C(=O)NO)s1)c1ccccc12 | 5.75 | 4.94 | 6 |  |  |  |  |  |
| CN1CCc2c(c3ccccc3n2Cc2ccc(C(=O)NO)cc2)C1 [TUBASTATIN A] |  |  |  | 1.68 to 1.97 | 0.84 | 2.18 to 2.38 | 0.97 | FC [5]: 1.17; FC [6]: 1.13 |

Now from value to molecule, other results behind:

| pIC50 [1] | pIC50 (Histone deacetylase 1) | Ratio IC50 (Homo sapiens [2]) | FC [3] | FC [8] | FC [9] | FC [12] | SMILES | other results |
| --- | --- | --- | --- | --- | --- | --- | --- | --- |
| 6.14 | 4.96 | 15 |  |  |  |  | CC(C)(C)OC(=O)N1CCC2(CC1)CN(Cc1ccc(C(=O)NO)s1)c1ccccc12 | pIC50 (Histone deacetylase 8): 5.87 |
| 7.20 | 5.14 | 116 |  |  |  |  | CC(=O)N1CCC2(CC1)CN(Cc1ccc(C(=O)NO)cc1)c1ccccc12 |  |
| 7.39 | 5.17 | 166 | 1.77 | 2.27 | 2.21 | 2.58 | O=C(NO)c1ccc(CN2CC3(CCCCC3)c3ccccc32)cc1 | inhibition [15]: Dose-dependent effect; pIC50 (Histone deacetylase 8): 6.60 |
|  |  | 10 |  |  |  |  | O=C(CCCCCCNC(=O)c1cnc(N(c2ccccc2)c2ccccc2)nc1)NO | Ratio IC50 (Homo sapiens [13]): 10; Ratio IC50 (Homo sapiens [14]): 10 |
| 7.22 | 5.35 | 74 |  |  |  |  | CC(C)(C)C(=O)N1CCC2(CC1)CN(Cc1ccc(C(=O)NO)cc1)c1ccccc12 | Activity (NB-4 [17]): Active |
